Reference: the supplement of paper PMC10307832

What was measured:
Assay in all cases: relative viability (nuclei count vs DMSO), 5 days (fraction); higher = more cells survive
MK-2206 + Pemetrexed = compound: NC1(c2ccc(-c3nc4ccn5c(=O)[nH]nc5c4cc3-c3ccccc3)cc2)CCC1 [MK-2206] + Nc1nc2[nH]cc(CCc3ccc(C(=O)N[C@@H](CCC(=O)O)C(=O)O)cc3)c2c(=O)[nH]1 [Pemetrexed] (partner 0.2 µM)
How it was run: (§1)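 A single step with final 0.05% Triton X-100, 1% formaldehyde and 1 ug/ml Hoechst fixed the cells and stained nuclei 5 days after treatment. Lung cancer cell lines in 1536-well plates had been treated by pin tool the day after seeding with one drug alone or a fixed anchor-drug dose plus five library-drug doses (not always all listed) in √10 steps, and nuclei were counted on 4× images. Relative viability is the ratio of nuclei in treated wells to nuclei in vehicle wells, taken as the median of duplicate plates.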

Pictilisib + Linsitinib = compound: CS(=O)(=O)N1CCN(Cc2cc3nc(-c4cccc5[nH]ncc45)nc(N4CCOCC4)c3s2)CC1 [Pictilisib] + C[C@]1(O)C[C@@H](c2nc(-c3ccc4ccc(-c5ccccc5)nc4c3)c3c(N)nccn32)C1 [Linsitinib] (partner 1 µM)
How it was run: as §1

Pictilisib + Crizotinib = compound: CS(=O)(=O)N1CCN(Cc2cc3nc(-c4cccc5[nH]ncc45)nc(N4CCOCC4)c3s2)CC1 [Pictilisib] + C[C@@H](Oc1cc(-c2cnn(C3CCNCC3)c2)cnc1N)c1c(Cl)ccc(F)c1Cl [Crizotinib] (partner 1 µM)
How it was run: as §1

MK-2206 + Crizotinib = compound: NC1(c2ccc(-c3nc4ccn5c(=O)[nH]nc5c4cc3-c3ccccc3)cc2)CCC1 [MK-2206] + C[C@@H](Oc1cc(-c2cnn(C3CCNCC3)c2)cnc1N)c1c(Cl)ccc(F)c1Cl [Crizotinib] (partner 1 µM)
How it was run: as §1

MK-2206 + Decitabine = compound: NC1(c2ccc(-c3nc4ccn5c(=O)[nH]nc5c4cc3-c3ccccc3)cc2)CCC1 [MK-2206] + Nc1ncn([C@H]2C[C@H](O)[C@@H](CO)O2)c(=O)n1 [Decitabine] (partner 2 µM)
How it was run: as §1

Cell Line	relative viability (MK-2206 + Pemetrexed; first compound 0.01 µM)	relative viability (MK-2206 + Pemetrexed; first compound 0.03162 µM)	relative viability (MK-2206 + Pemetrexed; first compound 0.3162 µM)	relative viability (MK-2206 + Pemetrexed; first compound 1 µM)	relative viability (Pictilisib + Linsitinib; first compound 0.02 µM)	relative viability (Pictilisib + Linsitinib; first compound 0.06325 µM)	relative viability (Pictilisib + Linsitinib; first compound 0.6325 µM)	relative viability (Pictilisib + Linsitinib; first compound 2 µM)	relative viability (Pictilisib + Crizotinib; first compound 0.02 µM)	relative viability (Pictilisib + Crizotinib; first compound 0.06325 µM)	relative viability (Pictilisib + Crizotinib; first compound 0.6325 µM)	relative viability (Pictilisib + Crizotinib; first compound 2 µM)	relative viability (MK-2206 + Crizotinib; first compound 0.01 µM)	relative viability (MK-2206 + Crizotinib; first compound 0.03162 µM)	relative viability (MK-2206 + Crizotinib; first compound 0.3162 µM)	relative viability (MK-2206 + Crizotinib; first compound 1 µM)	relative viability (MK-2206 + Decitabine; first compound 0.01 µM)	relative viability (MK-2206 + Decitabine; first compound 0.03162 µM)	relative viability (MK-2206 + Decitabine; first compound 0.3162 µM)	relative viability (MK-2206 + Decitabine; first compound 1 µM)
LCLC-103H	0.441	0.435	0.485	0.442	1.14	1.14	0.814	0.716	1.05	1.04	0.882	0.71	0.989	0.963	0.99	1.04	0.721	0.755	0.735	0.691
NCI-H650	0.979	0.913	0.818	1.02	0.979	1.03	0.809	0.633	0.762	0.712	0.629	0.642	0.725	0.72	0.563	0.805	0.344	0.306	0.347	0.284
NCI-H1975	0.314	0.286	0.331	0.262	0.781	0.821	0.418	0.249	0.915	0.9	0.713	0.307	0.96	0.866	0.855	0.894	0.387	0.346	0.36	0.323
NCI-H2126	0.708	0.653	0.61	0.701	0.692	0.692	0.609	0.5	0.998	0.988	0.972	0.688	1.01	1.02	1.01	0.979	0.575	0.528	0.526	0.574
NCI-H2087	0.623	0.624	0.667	0.684	1.12	1.02	0.918	0.944	0.912	0.828	1.03	0.985	0.777	0.889	0.749	0.835	0.244	0.273	0.24	0.196
